This note sets out measurements from ChEMBL document CHEMBL1201862, “PubChem BioAssay data set” (2004).

Molecules are shown by their SMILES.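 Where inhibition never reached the appropriate level, the endpoint shown equals the highest concentration tested. Otherwise, values were interpolated linearly from a five-concentration, 48-hour dose response in 96-well plates. GI50 = concentration required for 50% inhibition of growth.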 The source made the active and inactive calls. Cut-off read from the data, not from the text of the source: active = GI50 up to about 1.1 µM and inactive = higher.

Common to all, as to experiment: inhibition of tumour cell growth, NCI panel, 48 h
Assay [1] has as its system DMS-273.
The test system of assay [2] is DLD-1.
Assay [3] concerns LXFL 529.
Assay [4] relates to M19-MEL.
Assay [5] concerns XF498.
Assay [6] has as its system HOP-18.
Assay [7] concerns RXF 631.
In assay [8] the test system is BT-549.
The subject of assay [9] is Hs-578T.

In the case of `c1cc2nnsc2s1`, the GI50 in assay [1] was 70.6 µM (inactive); in assay [2] it was 60.4 µM (inactive); in assay [3], 90.8 µM (inactive); in [4] it was > 100 µM (inactive); in [5], > 100 µM (inactive); in assay [6], > 100 µM (inactive).

Take `CC1=C(C(=O)CC(=O)C(=O)Nc2ccccc2C(F)(F)F)Sc2ccccc2N1`: the GI50 in [1] was 40.2 µM (inactive); in assay [7] it was 86.5 µM (inactive); in assay [2] it was 76 µM (inactive); in assay [3], 35.7 µM (inactive); in assay [5] it was 31.5 µM (inactive).

Regarding `CC12C/C(=C\c3ccccc3)C(=O)C3C1CCCC32`, the GI50 in assay [1] was 42.6 µM (inactive); in assay [7] it was > 100 µM (inactive); in assay [2], 79.3 µM (inactive); in [3], 56.9 µM (inactive); in assay [4] it was 58.6 µM (inactive); in [5], > 100 µM (inactive). In addition, the GI50 in [6] was > 100 µM (inactive).

Turning to `CCOC(=O)c1ccc(/N=N/c2cc(C(=O)OCC)ccc2O)cc1`, the GI50 was > 100 µM (inactive) in [1]; > 100 µM (inactive) in assay [2]; > 100 µM (inactive) in [3]; > 100 µM (inactive) in assay [4]; 2.13 µM (inactive) in assay [5]; > 100 µM (inactive) in assay [6].

As to `CC1(C)C2C/C(=C\c3ccccc3)C(=O)C1C2` (stereo unspecified), the GI50 in assay [1] was > 100 µM (inactive); in assay [7], > 100 µM (inactive); in assay [2], 83.4 µM (inactive); in assay [3] it was > 100 µM (inactive); in [4] it was > 100 µM (inactive).

`O=C(CC1(O)C(=O)Nc2c(Cl)cc(Cl)cc21)c1cccc2ccccc12` (stereo unspecified): the GI50 in assay [1] was 13.7 µM (inactive); in assay [7], 18.1 µM (inactive); in [2], 15.8 µM (inactive); in [3], 15.3 µM (inactive); in assay [5] it was 20.4 µM (inactive); in [6], 17.9 µM (inactive).

Turning to `O=c1c2cc(Br)cc(Br)c2nc(CCCl)n1CCO`, the GI50 in [7] was > 100 µM (inactive); in assay [2], > 100 µM (inactive); in assay [3], 77.6 µM (inactive); in assay [4], 94.8 µM (inactive); in assay [5] it was 41.7 µM (inactive).

As to `CC(=O)OCCOCNC(=S)N/N=C/c1ccc(Br)s1`, the GI50 in assay [1] is > 87.7 µM (inactive); in assay [2], > 81.8 µM (inactive); in assay [3], > 70.3 µM (inactive); in assay [4], > 100 µM (inactive); in assay [5] it was > 100 µM (inactive); in assay [6], > 100 µM (inactive).

For `COc1ccc(CC2c3c(cc(OC)c(OC)c3OC)CCN2C)cc1OC` (stereo unspecified), the GI50 in [2] was > 100 µM (inactive); in assay [3] it was > 100 µM (inactive); in [5] it was > 100 µM (inactive); in [6], 51.2 µM (inactive).

Turning to `Cc1cc(NS(=O)(=O)c2ccc(Nc3c4ccccc4nc4c(C(=O)N5CCN(CCO)CC5)cccc34)cc2)no1`, the GI50 in assay [1], in [2], in assay [3], in assay [4], in assay [5] and in assay [6] was > 100 µM (inactive) each time.

Consider `CCN(CC)CCOc1ccc(/C=C(\C#N)c2ccc(OCCN(CC)CC)cc2)cc1`, for which the GI50 in assay [1] is 13.6 µM (inactive); in [2], 19.5 µM (inactive); in assay [3] it was 16.1 µM (inactive); in [4], 14.8 µM (inactive); in assay [5], 13.4 µM (inactive); in assay [6] it was 25.6 µM (inactive).

Take `N#Cc1cc([N+](=O)[O-])ccc1NC(=O)C(=O)Nc1n[nH]c(N)n1`: the GI50 in [1], in assay [7], in assay [2], in assay [3], in [4] and in [5] was > 100 µM (inactive) throughout.

In the case of `O=C1N[C@@H]([C@H]2CC[C@H](Cl)CN2)C(=O)N[C@H]1[C@H]1CC[C@H](Cl)CN1`, the GI50 in assay [1] was 0.205 µM (active); in [2], 4.92 µM (inactive); in assay [4], 2.47 µM (inactive); in assay [8], 1.63 µM (inactive); in assay [9] it was 5.06 µM (inactive); in assay [5], 0.184 µM (active). For the same compound, the GI50 in assay [6] was 5.86 µM (inactive).

Consider `CCOC(=O)C/C(N)=C(\C#N)C(=O)OCC`, for which the GI50 in assay [1], in assay [7], in assay [2], in assay [3], in [4] and in [5] was > 100 µM (inactive) throughout. Also, the GI50 in [6] was > 100 µM (inactive).

With `CCOC(OC(C)=O)[C@@H]1C=C[C@H](C)N(c2ccc([N+](=O)[O-])cc2)O1` (stereo partly specified), the GI50 in assay [1] is 3.19 µM (inactive); in assay [7] it was 4.98 µM (inactive); in [2], 2.59 µM (inactive); in [3] it was 3.65 µM (inactive); in [4], 2.14 µM (inactive); in assay [5], 14.6 µM (inactive). For the same compound, the GI50 in assay [6] is 8.79 µM (inactive).

With `Nc1ccccc1C(=O)/C=C/c1ccccc1O`, the GI50 is 55.8 µM (inactive) in assay [7]; 47.2 µM (inactive) in assay [2]; 39.2 µM (inactive) in assay [3]; 72.3 µM (inactive) in [4]; > 100 µM (inactive) in assay [5]; 8.34 µM (inactive) in assay [6].

`O=C(C=C1SCCS1)/C=C\c1ccc(Cl)cc1`: the GI50 in assay [1] is 99.3 µM (inactive); in assay [7], > 100 µM (inactive); in [2], > 100 µM (inactive); in [3] it was 69.7 µM (inactive); in assay [4], > 100 µM (inactive); in [5] it was 73.8 µM (inactive).

Turning to `CS(=O)(=O)c1nc(N)nc2nc[nH]c12`, the GI50 in assay [1], in assay [2], in assay [3], in assay [4], in assay [5] and in [6] was > 100 µM (inactive) throughout.

`CC(=O)O[C@H]1CCC2[C@@H]3CC[C@]4(C)CC(=O)C=C[C@]4(C)C3CC[C@@]21C` (stereo partly specified): the GI50 in assay [1] was 17.7 µM (inactive); in assay [7], > 50.9 µM (inactive); in assay [2], 22.6 µM (inactive); in assay [3] it was 14.8 µM (inactive); in assay [4], 18.8 µM (inactive); in assay [8] it was 16.4 µM (inactive). In addition, the GI50 in [6] is > 38.8 µM (inactive).

For the compound `COc1cc([C@@H]2c3cc4c(cc3[C@@H](NCc3ccccc3F)C3COC(=O)[C@@H]32)OCO4)cc(OC)c1O` (stereo partly specified), the GI50 is 1.21 µM (inactive) in assay [1]; 2.18 µM (inactive) in assay [7]; 11.9 µM (inactive) in assay [2]; 11.3 µM (inactive) in assay [3]; 3.47 µM (inactive) in assay [4]; > 100 µM (inactive) in assay [6].

For `Cc1nc2c(o1)/C(=N\c1ccccc1)c1nc(C)oc1/C2=N/c1ccccc1`, the GI50 in assay [1] was 20 µM (inactive); in assay [2], 25.5 µM (inactive); in assay [3], 20.8 µM (inactive); in assay [4], 21.6 µM (inactive); in assay [5], 18 µM (inactive); in assay [6] it was 17.3 µM (inactive).

On to `CCCCCCCCCCCCCCCCOP(=O)(O)Oc1ccc(/C=C\c2ccc(OP(=O)(O)OCCCCCCCCCCCCCCCC)cc2)cc1`, for which the GI50 in assay [1] is 25.1 µM (inactive); in [7], 48.5 µM (inactive); in assay [2], > 100 µM (inactive); in assay [3] it was 28.3 µM (inactive); in assay [4], 38.7 µM (inactive); in [6], 70.3 µM (inactive).

With `CCN(CC)CCNc1ccc2nnn3c4ccc([N+](=O)[O-])cc4c(=O)c1c23`, the GI50 in assay [1] was 5.16 µM (inactive); in assay [7] it was 4.11 µM (inactive); in assay [2], 3.93 µM (inactive); in [3], 4.98 µM (inactive); in assay [4], > 20.5 µM (inactive); in assay [8], > 100 µM (inactive). For the same compound, the GI50 is 14.1 µM (inactive) in [9], 6.25 µM (inactive) in [5] and 2.8 µM (inactive) in [6].
